Read-outs that look alike come from different tables or passages of the source.
Assay: in vitro
Format: in vitro ADME
Settings: human
How it was run: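 Permeability measured in both directions across 19-day Caco-2 layers with TEER above 600 […], incubated at 37° C without shaking; donor and receiver sampled at 10 and 90 min for LC/MS/MS. Derived values: Papp (cm/s), efflux ratio, recovery.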

[1] = Caco-2 monolayer, apical to basolateral, 90-minute incubation, read-out: Papp, A-B
[2] = Caco-2 monolayer, basolateral to apical, 90-minute incubation, read-out: Papp, B-A
[3] = Caco-2 monolayer, ER>2 indicates potential efflux transporter substrate, read-out: ER (efflux ratio)

Row | SMILES | Papp A→B at 90 min (Caco-2) [×10⁻⁶ cm/s] | Papp B→A at 90 min (Caco-2) [×10⁻⁶ cm/s] | efflux ratio at 90 min (Caco-2) | Papp A→B at 90 min [1] [×10⁻⁶ cm/s] | Papp B→A at 90 min [2] [×10⁻⁶ cm/s] | efflux ratio at 90 min [3]
1 | CC(C)[C@H](N)C(=O)Nc1ncnn2c([C@]3(C#N)O[C@H](CO)[C@@H](OC(=O)[C@@H](N)C(C)C)[C@H]3O)ccc12 [Compound 129, (2R,3S,4R,5R)-5-{4-[(2S)-2-amino-3-methylbutanamido]pyrrolo[2,1-f][1,2,4]triazin-7-yl}-5-cyano-4-hydroxy-2-(hydroxymethyl)oxolan-3-yl (2S)-2-amino-3-methylbutanoate] | 0.03 | 0.02 | 0.7 | – | – | –
2 | N#C[C@@]1(c2ccc3c(NC(=O)[C@@H](N)Cc4ccc(F)cc4)ncnn23)O[C@H](CO)[C@@H](OC(=O)CC2CCCCC2)[C@H]1O [Compound 137, (2R,3S,4R,5R)-5-(4-((S)-2-amino-3-(4-fluorophenyl)propanamido)pyrrolo[2,1-f][1,2,4]triazin-7-yl)-5-cyano-4-hydroxy-2-(hydroxymethyl)tetrahydrofuran-3-yl 2-cyclohexylacetate] | 0.6 | 2.7 | 4.5 | – | – | –
3 | CC(C)[C@H](N)C(=O)Nc1ncnn2c([C@]3(C#N)O[C@H](CO)[C@@H](OC(=O)CC4CCCCC4)[C@H]3O)ccc12 [Compound 139, (2R,3S,4R,5R)-5-(4-((S)-2-amino-3-methylbutanamido)pyrrolo[2,1-f][1,2,4]triazin-7-yl)-5-cyano-4-hydroxy-2-(hydroxymethyl)tetrahydrofuran-3-yl 2-cyclohexylacetate] | 0.18 | 6.1 | 34 | – | – | –
4 | CCCCCOC(=O)Nc1ncnn2c([C@]3(C#N)O[C@H](CO)[C@@H](OC(=O)Cc4ccccc4)[C@H]3O)ccc12 [Compound 141, (2R,3S,4R,5R)-5-cyano-4-hydroxy-2-(hydroxymethyl)-5-(4-(((pentyloxy)carbonyl)amino)pyrrolo[2,1-f][1,2,4]triazin-7-yl)tetrahydrofuran-3-yl 2-phenylacetate] | – | – | – | 0.14 | 0.04 | 0.33
5 | N#C[C@@]1(c2ccc3c(NC(=O)c4ccccc4)ncnn23)O[C@H](CO)[C@@H](OC(=O)Cc2ccccc2)[C@H]1O [Compound 143, (2R,3S,4R,5R)-5-(4-benzamidopyrrolo[2,1-f][1,2,4]triazin-7-yl)-5-cyano-4-hydroxy-2-(hydroxymethyl)tetrahydrofuran-3-yl 2-phenylacetate] | – | – | – | 0.67 | 0.12 | 0.18
6 | CC(C)[C@H](N)C(=O)Nc1ncnn2c([C@]3(C#N)O[C@H](CO)[C@@H](OC(=O)Cc4ccccc4)[C@H]3O)ccc12 [Compound 144, (2R,3S,4R,5R)-5-(4-((S)-2-amino-3-methylbutanamido)pyrrolo[2,1-f][1,2,4]triazin-7-yl)-5-cyano-4-hydroxy-2-(hydroxymethyl)tetrahydrofuran-3-yl 2-phenylacetate] | – | – | – | 0.03 | 1.8 | 53
7 | CNc1nc(N)nc2c1ncn2[C@@H]1O[C@H](COC(C)=O)[C@@H](O)[C@@]1(C)F [Compound 178, ((2R,3R,4R,5R)-5-(2-amino-6-(methylamino)-9H-purin-9-yl)-4-fluoro-3-hydroxy-4-methyltetrahydrofuran-2-yl)methyl acetate] | 6.7 | 4.4 | 0.7 | – | – | –
8 | CCC(=O)OC[C@H]1O[C@@H](n2cnc3c(NC)nc(N)nc32)[C@](C)(F)[C@@H]1O [Compound 180, ((2R,3R,4R,5R)-5-(2-amino-6-(methylamino)-9H-purin-9-yl)-4-fluoro-3-hydroxy-4-methyltetrahydrofuran-2-yl)methyl propionate] | – | – | – | 4.6 | 7.6 | 1.6
9 | CNc1nc(N)nc2c1ncn2[C@@H]1O[C@H](COC(C)=O)[C@@H](OC(=O)CC(C)C)[C@@]1(C)F [Compound 186, (2R,3R,4R,5R)-2-(acetoxymethyl)-5-(2-amino-6-(methylamino)-9H-purin-9-yl)-4-fluoro-4-methyltetrahydrofuran-3-yl 3-methylbutanoate] | 19 | 7.2 | 0.38 | – | – | –
10 | CNc1nc(N)nc2c1ncn2[C@@H]1O[C@H](COC(=O)C(C)C)[C@@H](OC(=O)CC(C)C)[C@@]1(C)F [Compound 187, (2R,3R,4R,5R)-5-(2-amino-6-(methylamino)-9H-purin-9-yl)-4-fluoro-2-((isobutyryloxy)methyl)-4-methyltetrahydrofuran-3-yl 3-methylbutanoate] | 11 | 2.4 | 0.22 | – | – | –
11 | CNc1nc(N)nc2c1ncn2[C@@H]1O[C@H](COC(C)=O)[C@@H](OC(=O)CC2CCCCC2)[C@@]1(C)F [Compound 194, (2R,3R,4R,5R)-2-(acetoxymethyl)-5-(2-amino-6-(methylamino)-9H-purin-9-yl)-4-fluoro-4-methyltetrahydrofuran-3-yl 2-cyclohexylacetate] | 12 | 2.1 | 0.18 | – | – | –
12 | CNc1nc(N)nc2c1ncn2[C@@H]1O[C@H](COC(=O)C(C)C)[C@@H](OC(=O)CC2CCCCC2)[C@@]1(C)F [Compound 195, ((2R,3R,4R,5R)-5-(2-amino-6-(methylamino)-9H-purin-9-yl)-3-(2-cyclohexylacetoxy)-4-fluoro-4-methyltetrahydrofuran-2-yl)methyl isobutyrate] | 6.3 | 1.1 | 0.18 | – | – | –
13 | CNc1nc(N)nc2c1ncn2[C@@H]1O[C@H](COC(C)=O)[C@@H](OC(=O)Cc2ccccc2)[C@@]1(C)F [Compound 210, (2R,3R,4R,5R)-2-(acetoxymethyl)-5-(2-amino-6-(methylamino)-9H-purin-9-yl)-4-fluoro-4-methyltetrahydrofuran-3-yl 2-phenylacetate] | – | – | – | 15 | 5.8 | 0.38
14 | CNc1nc(N)nc2c1ncn2[C@@H]1O[C@H](COC(=O)C(C)C)[C@@H](OC(=O)Cc2ccccc2)[C@@]1(C)F [Compound 211, ((2R,3R,4R,5R)-5-(2-amino-6-(methylamino)-9H-purin-9-yl)-4-fluoro-4-methyl-3-(2-phenylacetoxy)tetrahydrofuran-2-yl)methyl isobutyrate] | – | – | – | 6.2 | 4.8 | 0.8
15 | CNc1nc(N)nc2c1ncn2[C@@H]1O[C@H](COC(=O)CC2CCCCC2)[C@@H](OC(C)=O)[C@@]1(C)F [Compound 215, ((2R,3R,4R,5R)-3-acetoxy-5-(2-amino-6-(methylamino)-9H-purin-9-yl)-4-fluoro-4-methyltetrahydrofuran-2-yl)methyl 2-cyclohexylacetate] | 9.3 | 1.6 | 0.18 | – | – | –
16 | CNc1nc(N)nc2c1ncn2[C@@H]1O[C@H](COC(=O)Cc2ccccc2)[C@@H](OC(C)=O)[C@@]1(C)F [Compound 217, ((2R,3R,4R,5R)-3-acetoxy-5-(2-amino-6-(methylamino)-9H-purin-9-yl)-4-fluoro-4-methyltetrahydrofuran-2-yl)methyl 2-phenylacetate] | – | – | – | 14 | 6.1 | 0.45
17 | CCC(=O)OC[C@H]1O[C@@H](n2cnc3c(NC)nc(N)nc32)[C@](C)(F)[C@@H]1OC(C)=O [Compound 220, ((2R,3R,4R,5R)-3-acetoxy-5-(2-amino-6-(methylamino)-9H-purin-9-yl)-4-fluoro-4-methyltetrahydrofuran-2-yl)methyl propionate] | 20 | 13 | 0.64 | – | – | –
18 | CNc1nc(N)nc2c1ncn2[C@@H]1O[C@H](COC(=O)CC2CCCCC2)[C@@H](OC(=O)C(C)C)[C@@]1(C)F [Compound 223, (2R,3R,4R,5R)-5-[2-amino-6-(methylamino)purin-9-yl]-2-{[(2-cyclohexylacetyl)oxy]methyl}-4-fluoro-4-methyloxolan-3-yl 2-methylpropanoate] | 20 | 6.9 | 0.34 | – | – | –
19 | CNc1nc(N)nc2c1ncn2[C@@H]1O[C@H](COC(=O)C(C)C)[C@@H](OC(=O)C(C)C)[C@@]1(C)F [Compound 227, (2R,3R,4R,5R)-5-(2-amino-6-(methylamino)-9H-purin-9-yl)-4-fluoro-2-((isobutyryloxy)methyl)-4-methyltetrahydrofuran-3-yl isobutyrate] | 8.5 | 3.2 | 0.4 | – | – | –
20 | CCC(=O)O[C@@H]1[C@@H](COC(=O)C(C)C)O[C@@H](n2cnc3c(NC)nc(N)nc32)[C@]1(C)F [Compound 235, ((2R,3R,4R,5R)-5-(2-amino-6-(methylamino)-9H-purin-9-yl)-4-fluoro-4-methyl-3-(propionyloxy)tetrahydrofuran-2-yl)methyl isobutyrate] | 11 | 4.5 | 0.4 | – | – | –
21 | CCCCCCCCCCCCCCCCCCOCCOP(=O)(O)OC[C@H]1O[C@@H](n2cnc3c(NC)nc(N)nc32)[C@](C)(F)[C@@H]1O [Compound 254, ((2R,3R,4R,5R)-5-(2-amino-6-(methylamino)-9H-purin-9-yl)-4-fluoro-3-hydroxy-4-methyltetrahydrofuran-2-yl)methyl (2-(octadecyloxy)ethyl) hydrogen phosphate] | 2.2 | 1.7 | 0.8 | – | – | –
22 | CC(C)CC(=O)N[C@H](C(=O)OC[C@H]1O[C@@](C#N)(c2ccc3c(N)ncnn23)[C@H](O)[C@@H]1O)C(C)C [Compound 255, [(2R,3S,4R,5R)-5-{4-aminopyrrolo[2,1-f][1,2,4]triazin-7-yl}-5-cyano-3,4-dihydroxyoxolan-2-yl]methyl (2S)-3-methyl-2-(3-methylbutanamido)butanoate] | 2.1 | 5.3 | 2.5 | – | – | –

— US12102648B2, “Orally-bioavailable nucleoside analogs” (priority 2021, dated 2024)
